Data published in patent US20110015123A1, “Modulation of GLUT4 Gene Promoter activity BY AHNAK” (Technion Research and Developmet Foundation Ltd., priority 2008, published 2011).
Entries after “also recorded” stand apart in the source; their conditions may differ.

Key:
AHNAK = assay: Immunofluorescence of AHNAK cellular distribution in HEK cells; format: cell-based, human; details: serum free medium, 24 hrs, insulin 100 nM alone or with LY 20 μM
Description: Immunofluorescence Studies—Human embryonic kidney (HEK) cells were plated in 60 mm plates at a density of 500,000 cells/plate. Cells were incubated for 24 h at 37° C. The next day, cells were washed with magnesium-containing phosphate-buffered saline and transferred to serum-deprived medium supplemented with 2% BSA either with or without Insulin (100 nM). After 24 h, the cells were fixed in 4% paraformaldehyde and stained for indirect immunofluorescence using an anti-AHNAK primary antibody (SC 81048), followed by a FITC-conjugated goat anti-mouse secondary antibody. The nuclei were stained by DAPI.

[1] = tested on: insulin response element (3×IRS-LUC); assay: 3×IRS-LUC synthetic promoter reporter assay in PRA; format: cell-based, rat; details: PRA transfected with AHNAK fragments, 24 hrs
Excerpt: (§1) Expression vectors and luciferase promoter reporters. Expression vectors, pC-DY, pM-DY, and pN-DY, baring the C-terminus, middle domain, and N-terminus of human AHNAK in c-myc-tagged pCDNA3 (Hashimoto, Amagai et al. 1993; Nie, Ning et al. 2000), were a generous gift of Dr. Hashimoto (Department of Dermatology, Kurume University School of Medicine, Kurume, Fukuoka, Japan). The rat GLUT4 promoter (GLUT4-P) reporter and a derived series of progressively 5′-deleted promoter reporters, have been described by us previously (Armoni, Harel et al. 2005). A control synthetic reporter 3×IRS-LUC, containing three repeats of an insulin response element consensus motif in pGL2 was provided by Dr. Eric Tang (Tang, Nunez et al. 1999).
(§2) PRA were transfected by electroporation with 2 μg of GLUT4 promoter reporter DNA, 0-5 μg of expression vectors and 0.5 μg of pCMV-β-galactosidase. […] Within each experiment, values were expressed as a percentage of the basal GLUT4 promoter activity, i.e. the activity obtained in cells transfected with promoter reporter alone. Cell viability was assessed by trypan blue exclusion. Each experiment was repeated three to four times, with each sample analyzed in quadruplicates.

GLUT4 promoter [2] = assay: GLUT4-P-Luc promoter reporter (luciferase) assay in primary rat adipocytes (PRA); format: cell-based
Excerpt: as §1
Cell cultures and transient expression assays. […]
as §2

GLUT4 protein = GLUT4 protein level in PRA by Western immunoblotting; format: cell-based, rat; details: NT-transfected PRA, arachidonic acid 100 μM, 24 hrs
Description: AHNAK siRNA. Double-stranded RNAs (dsRNAs) targeting the rat AHNAK were purchased from Dharmacon (Dharmacon, Inc, California, USA). The siRNA (On TARGETplus SMARTpool L-101672-01-0010, Rat Ahnak, XM—574618) used in the experiments is a mixture consisting of the siRNAs of the sequences set forth in SEQ ID NO:1 to SEQ ID NO:8.
PRA were transfected by electroporation with the dsRNA (40 ng in PBS, pH=7.4) as described above. After 24 hrs, cells were harvested and total RNA and protein were obtained. Scrambled non targeting duplex RNA (NT-siRNA) was transfected as control. AHNAK silencing was assessed by QRT-PCR, and normalized to 18S rRNA. GLUT4 expression at protein level was assessed by Western immunoblotting as detailed by us before (Armoni et al., 2002; Armoni et al., 2005).

GLUT4 promoter [3] = assay: GLUT4-P-Luc promoter reporter (luciferase) assay in H9C2 myotubes; format: cell-based, rat; details: 0-100 μM arachidonic acid, 24 h

Row | Compound | AHNAK subcellular distribution (AHNAK) | effect on AHNAK repression of 3×IRS-LUC reporter [1] | effect on AHNAK fragment repression of GLUT4-P (GLUT4 promoter [2]; PRA transfected with AHNAK fragments, 24 hrs) | decrease in GLUT4 protein levels (GLUT4 protein) | effect on transcription from GLUT4-P (GLUT4 promoter [3]) | effect on transcription from GLUT4-P (GLUT4 promoter [2]; PRA, ambient arachidonic acid levels, 24 h)
1 | insulin: Insulin purchased from SIGMA, Israel | most of it translocates to the cytosel | partially rescued the activity; also recorded: curtailed this repression | partially rescued the activity |  |  | 
2 | CCCCC/C=C\C/C=C\C/C=C\C/C=C\CCCC(=O)O [arachidonic acid] |  |  |  | ~40%±3 | dose-dependently repressed transcription from GLUT4-P | dose-dependently repressed transcription from GLUT4-P
3 | O=c1cc(N2CCOCC2)oc2c(-c3ccccc3)cccc12 [LY] | AHNAK nuclear re-distribution |  |  |  |  | 
